From patent US7985731B2, “Sugar chain added GLP-1 peptide” (Otsuka Chemical Holdings Co., Ltd., priority 2007, dated 2011)
Peptide text beside a SMILES is read from it. * marks the point of attachment. X1 = CC(=O)N[C@@H]1[C@@H](O)[C@H](O[C@@H]2O[C@H](CO)[C@@H](O[C@@H]3O[C@H](CO[C@H]4O[C@H](CO)[C@@H](O)[C@H](O)[C@@H]4O[C@@H]4O[C@H](CO)[C@@H](O[C@@H]5O[C@H](CO[C@]6(C(=O)O)C[C@H](O)[C@@H](NC(C)=O)[C@H]([C@H](O)[C@H](O)CO)O6)[C@H](O)[C@H](O)[C@H]5O)[C@H](O)[C@H]4NC(C)=O)[C@@H](O)[C@H](O[C@H]4O[C@H](CO)[C@@H](O)[C@H](O)[C@@H]4O[C@@H]4O[C@H](CO)[C@@H](O[C@@H]5O[C@H](CO[C@]6(C(=O)O)C[C@H](O)[C@@H](NC(C)=O)[C@H]([C@H](O)[C@H](O)CO)O6)[C@H](O)[C@H](O)[C@H]5O)[C@H](O)[C@H]4NC(C)=O)[C@@H]3O)[C@H](O)[C@H]2NC(C)=O)[C@@H](CO)O[C@H]1NC(=O)C*

Legend:
mouse GLP-1 receptor = molecular target: T1, mouse GLP-1 receptor (Mus musculus, UniProt O35659); assay: Test Example 6: ability to synthesize cAMP in mouse GLP-1 receptor-expressing CHO-K1 cells; format: cell-based
T1 construct: expressed in transfected cells
T1 sequence (O35659 22-463): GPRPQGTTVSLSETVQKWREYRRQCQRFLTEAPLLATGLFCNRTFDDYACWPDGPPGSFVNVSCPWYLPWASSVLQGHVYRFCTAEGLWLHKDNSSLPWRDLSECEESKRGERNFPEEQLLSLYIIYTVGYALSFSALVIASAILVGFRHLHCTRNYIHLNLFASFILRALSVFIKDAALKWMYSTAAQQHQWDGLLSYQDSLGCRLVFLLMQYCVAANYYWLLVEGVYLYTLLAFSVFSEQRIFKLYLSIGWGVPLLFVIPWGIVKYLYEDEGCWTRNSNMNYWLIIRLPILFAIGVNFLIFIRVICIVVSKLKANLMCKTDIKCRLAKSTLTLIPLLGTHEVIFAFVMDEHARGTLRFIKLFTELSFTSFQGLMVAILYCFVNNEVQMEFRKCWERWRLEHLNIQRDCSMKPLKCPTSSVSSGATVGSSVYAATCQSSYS
Experimental: 1. Construction of Mouse GLP-1 Receptor-Expressing Vector
A mouse GLP1 receptor sense primer (5′-[…]-3′) (SEQ ID NO: 152) and a mouse GLP-1 receptor antisense primer (5′-[…]-3′) (SEQ ID NO: 153) capable of binding to the 5′ and 3′ ends of mouse GLP-1 receptor cDNA were separately synthesized. PCR was performed using Ex Taq polymerase (TaKaRa) with cDNA (Clone ID: 40046534, Open Biosystems) as a template. Specifically, 50 μL in total of reaction solution consisting of 1 μL of template cDNA (10 ng/μL), 4 μL of 2.5 mM dNTPs, 1 μL of primer solution mixtures (each 50 μM), 5 μL of ×10 Ex Taq polymerase Buffer, 0.25 μL of Ex Taq polymerase and 38.75 μL of sterilized water was used and allowed to react by 94° C. for 1 minute; 94° C. for 45 seconds, 55° C. for 1 minute and 72° C. for 2 minutes (35 cycles); and 72° C. for 10 minutes. The PCR reaction product was electrophoresed on 1% agarose gel, and the cDNA fragment was purified using Wizard SV Gel and PCR Clean-up System (Promega) and treated with restriction enzymes (EcoRI and NheI) to obtain mouse GLP-1 receptor cDNA.
To efficiently obtain cells highly expressing a mouse GLP-1 receptor, a pIRES-gfp vector was used as an expression vector. This vector was prepared by inserting, to a vector pEGFP-N1 (Clontech), an IRES gene-containing DNA fragment obtained by the restriction enzyme treatment (Sal I and BamHI) of pIRESpuro2 (Clontech).
The mouse GLP-1 receptor cDNA fragment was inserted to pIRES-gfp to thereby obtain a mouse GLP-1 receptor-expressing vector mGLP-1R/pIRES-gfp. The DNA sequence of the obtained vector was confirmed using ABI3100-Avant (Applied Biosystems).
2. Preparation of Mouse GLP-1 Receptor-Expressing CHO-K1 Cells
CHO-K1 cells (ATCC catalog No. CCL-61) were transfected with the obtained mGLP-1R/pIRES-gfp using FuGENE (registered trademark) (Roche) according to the instruction manual. The transfected CHO-K1 cells were cultured in RPMI1640 medium (Wako Pure Chemical Industries) containing 10% FCS (Hyclone) and penicillin-streptomycin (SIGMA). Drug selection was conducted by the addition of 1.0 mg/ml G418 (Wako Pure Chemical Industries). The drug resistance cells were sorted with a cell sorter (EPICS ALTRA, Beckman Coulter) using a GFP expression level as an index. After the sorting, the limiting dilution method was conducted to obtain cells highly expressing GFP, namely, cells highly expressing a mouse GLP-1 receptor. The obtained cells were used as mouse GLP-1 receptor-expressing CHO-K1 cells in the experiment shown below.
3. Analysis of Agonist Effect of Oligosaccharide Chain Added GLP-1 Peptide (Ability to Synthesize cAMP)
The mouse GLP-1 receptor-expressing CHO-K1 cells prepared in the preceding paragraph 2 were used to evaluate the agonist effect of the oligosaccharide chain added GLP-1 peptide using the ability to synthesize cAMP as an index.
The mouse GLP-1 receptor-expressing CHO-K1 cells were suspended at a concentration of 5×10^5 cells/ml in RPMI1640 medium containing 10% FCS. The cell suspension was seeded at a concentration of 100 μL per well to a flat-bottomed 96-well plate (Falcon) and cultured at 5% CO2 at 37° C. for 16 hours. The culture supernatant was discarded. The oligosaccharide chain added GLP-1 peptide dissolved in Krebs Ringer bicarbonate Buffer containing 2.5 mM glucose was added at a concentration of 100 μL/well and cultured at 37° C. for 30 minutes. The culture supernatant was immediately discarded. The amount of cAMP synthesized in the mouse GLP-1 receptor-expressing CHO-K1 cells was measured using cAMP ELISA Kit (GE Healthcare or Cayman) and used as an index for the agonist effect of the oligosaccharide chain added GLP-1 peptide on mouse GLP-1 receptors.
GLP-1 increases intracellular cAMP concentrations through the binding to its receptor and promotes insulin secretion. Thus, the activity of the oligosaccharide chain added GLP-1 peptide was evaluated using the ability to synthesize cAMP as an index. […]

C57BL/6JJcl mice = assay: Test Example 7: Oral Glucose Tolerance Test (OGTT); format: in vivo; settings: for dose dependence of activity of suppressing rise in blood-sugar levels in OGTT: doses 0.9 nmol/kg and 0.09 nmol/kg intraperitoneal
Procedure, shortened: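 Overnight-fasted mice received oral glucose 1 mg/g 30 minutes after treatment. Orbital blood taken before and at 30, 60, 120 minutes post-glucose. Blood glucose measured by glucometer.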

[1] = tested on: db/db (BKS.Cg-+Lepr db/+Lepr db/Jcl) mice; assay: Test Example 8: effect of lowering blood-sugar levels in diabetes model mice; format: in vivo; settings: 9 nmol/kg intraperitoneal; for effect of lowering blood-sugar levels in db/db mice: 10-week-old male mice; for durability of effect of lowering blood-sugar levels in db/db mice: up to 300 minutes
Experimental: The oligosaccharide chain added GLP-1 peptide prepared in Example 2, 3, 4, 21 or 23 or the GLP-1 prepared in Comparative Example 1 in a PBS solution (9 nmol/10 ml) was intraperitoneally administered at a dose of 10 ml/kg to BKS.Cg−+Lepr^db/+Lepr^db/Jcl mice (10 week old, male). Blood was collected from the orbits before the compound administration and 30 minutes, 60 minutes, 120 minutes, 180 minutes and 300 minutes after the compound administration. Blood-sugar levels were measured using ACCU-CHEK Aviva (Roche Diagnostics).
The db/db (BKS.Cg−+Lepr^db/+Lepr^db/Jcl) mice serving as diabetes model mice have a mutation in a receptor of leptin which is anorexigenic/energy metabolism-accelerating hormone and develops conditions such as obesity or hyperglycemia.
Blood-sugar levels were measured over time, and their effects of lowering blood-sugar levels were compared with that of the GLP-1 without oligosaccharide chain addition of Comparative Example 1.

[2] = 9 nmol/kg intraperitoneal 30 minutes before glucose 1 mg/g oral

Compound	cAMP synthesis activity compared with GLP-1 (in words) (mouse GLP-1 receptor)	activity of suppressing rise in blood-sugar levels in OGTT (C57BL/6JJcl mice; 0.09 nmol/kg intraperitoneal)	effect of suppressing rise in blood-sugar levels in OGTT (C57BL/6JJcl mice; 0.9 nmol/kg intraperitoneal)	effect of suppressing rise in blood-sugar levels in OGTT (C57BL/6JJcl mice; [2])	dose dependence of activity of suppressing rise in blood-sugar levels in OGTT (C57BL/6JJcl mice)	effect of lowering blood-sugar levels in db/db mice [1]	durability of effect of lowering blood-sugar levels in db/db mice [1]	efficacy relative to 30Cys GLP-1-disialo and 36Cys GLP-1-disialo at the same dose in OGTT (C57BL/6JJcl mice; 0.9 nmol/kg intraperitoneal)
CC[C@H](C)[C@H](NC(=O)[C@H](Cc1ccccc1)NC(=O)[C@H](CCC(=O)O)NC(=O)[C@H](CCCCN)NC(=O)[C@H](C)NC(=O)[C@H](C)NC(=O)[C@H](CCC(N)=O)NC(=O)CNC(=O)[C@H](CCC(=O)O)NC(=O)[C@H](CC(C)C)NC(=O)[C@H](Cc1ccc(O)cc1)NC(=O)[C@H](CO)NC(=O)[C@H](CO)NC(=O)[C@@H](NC(=O)[C@H](CC(=O)O)NC(=O)[C@H](CO)NC(=O)[C@@H](NC(=O)[C@H](Cc1ccccc1)NC(=O)[C@@H](NC(=O)CNC(=O)[C@H](CCC(=O)O)NC(=O)[C@H](C)NC(=O)[C@@H](N)Cc1c[nH]cn1)[C@@H](C)O)[C@@H](C)O)C(C)C)C(=O)N[C@@H](CSCC(=O)N[C@@H]1O[C@H](CO)[C@@H](O[C@@H]2O[C@H](CO)[C@@H](O[C@@H]3O[C@H](CO[C@H]4O[C@H](CO)[C@@H](O)[C@H](O)[C@@H]4O[C@@H]4O[C@H](CO)[C@@H](O[C@@H]5O[C@H](CO[C@]6(C(=O)O)C[C@H](O)[C@@H](NC(C)=O)[C@H]([C@H](O)[C@H](O)CO)O6)[C@H](O)[C@H](O)[C@H]5O)[C@H](O)[C@H]4NC(C)=O)[C@@H](O)[C@H](O[C@H]4O[C@H](CO)[C@@H](O)[C@H](O)[C@@H]4O[C@@H]4O[C@H](CO)[C@@H](O[C@@H]5O[C@H](CO[C@]6(C(=O)O)C[C@H](O)[C@@H](NC(C)=O)[C@H]([C@H](O)[C@H](O)CO)O6)[C@H](O)[C@H](O)[C@H]5O)[C@H](O)[C@H]4NC(C)=O)[C@@H]3O)[C@H](O)[C@H]2NC(C)=O)[C@H](O)[C@H]1NC(C)=O)C(=O)N[C@@H](Cc1c[nH]c2ccccc12)C(=O)N[C@@H](CC(C)C)C(=O)N[C@H](C(=O)N[C@@H](CCCCN)C(=O)NCC(=O)N[C@@H](CCCNC(=N)N)C(=O)NCC(=O)O)C(C)C [Example 21, 30Cys GLP-1-disialo] (H-HAEGTFTSDVSSYLEGQAAKEFIC(X1)WLVKGRG-OH)	activity equal to or more than that of the GLP-1	weaker activity of suppressing rise in blood-sugar levels than that of the 36Cys GLP-1-disialo at the same dose	suppressed rise in blood-sugar levels almost completely	strong effect of suppressing rise in blood-sugar levels	dose-dependent activity of suppressing rise in blood-sugar levels	strong effect of lowering blood-sugar levels	blood-sugar levels were kept at low levels after 300 minutes	–
CC[C@H](C)[C@H](NC(=O)[C@H](Cc1ccccc1)NC(=O)[C@H](CCC(=O)O)NC(=O)[C@H](CCCCN)NC(=O)[C@H](C)NC(=O)[C@H](C)NC(=O)[C@H](CCC(N)=O)NC(=O)CNC(=O)[C@H](CCC(=O)O)NC(=O)[C@H](CC(C)C)NC(=O)[C@H](Cc1ccc(O)cc1)NC(=O)[C@H](CO)NC(=O)[C@H](CO)NC(=O)[C@@H](NC(=O)[C@H](CC(=O)O)NC(=O)[C@H](CO)NC(=O)[C@@H](NC(=O)[C@H](Cc1ccccc1)NC(=O)[C@@H](NC(=O)CNC(=O)[C@H](CCC(=O)O)NC(=O)[C@H](C)NC(=O)[C@@H](N)Cc1c[nH]cn1)[C@@H](C)O)[C@@H](C)O)C(C)C)C(=O)N[C@@H](C)C(=O)N[C@@H](Cc1c[nH]c2ccccc12)C(=O)N[C@@H](CC(C)C)C(=O)N[C@H](C(=O)N[C@@H](CSCC(=O)N[C@@H]1O[C@H](CO)[C@@H](O[C@@H]2O[C@H](CO)[C@@H](O[C@@H]3O[C@H](CO[C@H]4O[C@H](CO)[C@@H](O)[C@H](O)[C@@H]4O[C@@H]4O[C@H](CO)[C@@H](O[C@@H]5O[C@H](CO[C@]6(C(=O)O)C[C@H](O)[C@@H](NC(C)=O)[C@H]([C@H](O)[C@H](O)CO)O6)[C@H](O)[C@H](O)[C@H]5O)[C@H](O)[C@H]4NC(C)=O)[C@@H](O)[C@H](O[C@H]4O[C@H](CO)[C@@H](O)[C@H](O)[C@@H]4O[C@@H]4O[C@H](CO)[C@@H](O[C@@H]5O[C@H](CO[C@]6(C(=O)O)C[C@H](O)[C@@H](NC(C)=O)[C@H]([C@H](O)[C@H](O)CO)O6)[C@H](O)[C@H](O)[C@H]5O)[C@H](O)[C@H]4NC(C)=O)[C@@H]3O)[C@H](O)[C@H]2NC(C)=O)[C@H](O)[C@H]1NC(C)=O)C(=O)NCC(=O)N[C@@H](CCCNC(=N)N)C(=O)NCC(=O)O)C(C)C [Example 23, 34Cys GLP-1-disialo]	activity equal to or more than that of the GLP-1	–	–	strong effect of suppressing rise in blood-sugar levels	dose-dependent activity of suppressing rise in blood-sugar levels	strong effect of lowering blood-sugar levels	effects of lowering blood-sugar levels were slightly weakened over time	about ½
